Data on 43 molecules can be found in PubChem BioAssay (NCI).

“And” between values parts separate entries of the source, which are not always exact repeats. Equal entries are not always repeated.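 Compound exposure: 48 hours, 5 concentrations, 96-well plates. Abbreviation: GI50, concentration required for 50% inhibition of growth. At the TGI there is no net growth.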 The source made the active and inactive calls. No stated cut-off is given here; in the data, active means GI50 below about 0.43 µM; inactive means the rest. Bounds are passed on as bounds.

The test relates to MDA-MB-468 breast. Kind of test: NCI anticancer screen, dose series, 48 h.
As to `c1ccc(Nc2nc(-c3ccccn3)cs2)nc1`, the GI50 is 1.13 µM and the TGI is 11.5 µM.

As to `CCCC[n+]1c(/C=C\c2c(OC)cc(OC)cc2OC)ccc2ccccc21`, the GI50 is 0.241 µM and the TGI stood at 1.38 µM.

In the case of `O=[N+]([O-])c1ccc(Sc2nc(Cl)nc(NC3CCCC3)n2)cc1`, the GI50 is 2.1 µM and the TGI is 7.13 µM.

As to `CN1CC[C@]2(c3cccc(O)c3)CC(=O)/C(=C/c3ccccc3)[C@H]1C2`, the GI50 is 2.19 µM and the TGI came out at 6.2 µM.

For `CO[C@]12C=C/C(=C(/C(=O)OCc3cccnc3)C(=O)CCCCCCCC[C@@]3(OC)C=C/C(=C(/C(=O)OCc4cccnc4)C(=O)CCCCCCCC1)O3)O2`, the GI50 is 0.919 µM and the TGI came to 2.3 µM.

On to `CCCCCCC/C=C/[C@H]1O[C@]2(O)C(=O)C=C3C[C@@H](O[C@@H]4O[C@H](CO)[C@@H](O)C(O)[C@@H]4O)C[C@@H]3[C@H]2C=C1C` (stereo partly drawn), for which the GI50 was 3.42 µM and the TGI was 11.4 µM.

Consider `O=C1C(Nc2ccc(Br)cc2)=C(I)C(=O)c2ncccc21`, for which the GI50 was 0.97 µM and the TGI is 1.93 µM.

As for `Cc1[nH]c(C(=O)Nc2ccccc2OC2CCNCC2)c(Cl)c1Cl`, the GI50 is 0.93 µM and the TGI was found to be 1.9 µM.

Take `C=C1CCC2C3(C)COC(c4c(OC)cccc4OC)OC3CCC2(C)C1C/C=C1/C(=O)OCC1O` (stereo not drawn): the GI50 was 1.47 µM and the TGI came to 3.35 µM.

`NC1CCC(Nc2nc(NCc3cc(Cl)ccc3O)c3ncn(C4CCCC4)c3n2)CC1` (stereo not drawn): the GI50 is 0.158 µM and the TGI is 0.468 µM.

Molecule `CCN(Cc1ccccc1Cl)c1ccc(CO)c(Cl)c1` yielded a TGI of 0.116 µM.

Regarding `COc1cccc(-n2cc(-c3nc(Nc4cc(C)[nH]n4)c4ccccc4n3)nn2)c1`, the GI50 was 4.32 µM and the TGI was 15.7 µM.

Take `CCCCCc1cc[n+](CC(=O)c2ccc([N+](=O)[O-])cc2)cc1`: the GI50 was 2.17 µM and the TGI was 8.06 µM.

As for `CC1=C(C(=O)Nc2ccc3[nH]ncc3c2)C(c2ccc(Cl)c(Cl)c2)CC(=O)N1` (stereo not drawn), the GI50 is above 18 µM and the TGI was above 25 µM.

As to `Fc1ccc(-c2nn3c(-c4cc(C(F)(F)F)cc(C(F)(F)F)c4)nnc3s2)cc1`, the GI50 was 2.53 µM and the TGI was above 50 µM.

Turning to `COc1ccc(-c2nn(-c3cccc(NC(=O)Nc4ccccc4)c3)cc2-c2ccncc2)cc1Cl`, the GI50 is 2.26 µM and the TGI turned out to be 6.43 µM.

In the case of `CCC(C)[C@H](NC(=O)NC(=O)NC(=O)CI)C(=O)OC` (stereo partly drawn), the GI50 is 3.54 µM and the TGI was 12.6 µM.

On to `Cc1cccc2nc3cccc(C(=O)NCCNCCNCCNC(=O)c4cccc5nc6cccc(C)c6nc45)c3nc12`, for which the GI50 was 0.0172 µM and the TGI amounted to 1.02 µM.

For the molecule `COc1cc(/C=C2\Oc3cc(OCCCN4CCCC4)ccc3C2=O)cc(OC)c1`, the GI50 is 2.93 µM and the TGI was determined as 13 µM.

`COc1ccc(-c2nc(Nc3ccc(-c4nc5ccccc5[nH]4)cc3)nc(N3CCOCC3)n2)cc1`: the GI50 was 2.92 µM and the TGI was determined as 7.65 µM.

`O=c1c2c(c3ccccc3n1-c1ccccc1)NC(=S)NC2c1ccc(Cl)cc1` (stereo not drawn): the GI50 was 19 µM and the TGI is above 100 µM.

Take `CC(C)(CCN=C(N)Nc1ccccn1)c1ccc(C(F)(F)F)cc1`: the GI50 was 7.07 µM and the TGI is 22.3 µM.

For the molecule `COC(=O)c1ccc(NC2=C/C(=N/S(=O)(=O)c3ccc(C(=O)O)cc3)c3ccccc3C2=O)cc1`, the GI50 was 1.71 µM and the TGI was determined as 4.04 µM.

Consider `CN(C)CCC=C1c2ccccc2C(C)(C)c2ccccc21`, for which the GI50 was 2.59 µM and the TGI was 14 µM.

In the case of `O=C(O)C1C2C=CC(C2)C1C(=O)O` (stereo not drawn), the GI50 is above 100 µM and the TGI was above 100 µM.

As to `O=C(N=Nc1c(O)[nH]c2ccccc12)c1oc2ccccc2c1CN1CCN(c2ccccc2)CC1`, the GI50 is 1.24 µM and the TGI turned out to be 3.89 µM.

Consider `Nc1nc2c(nnn2C2OC(CO)C(O)C2O)c(=O)[nH]1` (stereo not drawn), for which the GI50 is 0.488 µM and the TGI came out at 5.37 µM.

For the molecule `Nc1ccc(-c2nnc(SCc3ccc(O)c4ncccc34)o2)cc1`, the GI50 is 0.0387 µM and the TGI stood at 1.16 µM.

Consider `COc1cc2nc(-c3ccc(Cl)cc3)cc(OCCCN3CCCC3)c2cc1OC`, for which the GI50 was 1.28 µM and the TGI was 3.11 µM.

For `CCCCCCCCCCC/C=C\C[C@H](O)C/C=C1/C(=O)C=C[C@@H]1C/C=C\CCCC(=O)OC`, the GI50 is 0.864 µM and the TGI is 3.76 µM.

Consider `Clc1nc(Cl)c2c3c(sc2n1)CCCC3`, for which the GI50 is 2.1 µM.

Regarding `O=C(CCCCCCN1CC(=O)N2[C@@H](c3cccc(Br)c3)c3[nH]c4ccccc4c3C[C@H]2C1=O)NO`, the GI50 is 2.09 µM and the TGI is 5.47 µM.

Take `COC(C(=O)C(O)C(C)O)C1Cc2cc3cc(OC4CC(OC5CC(O)C(O)C(C)O5)C(O)C(C)O4)c(C)c(O)c3c(O)c2C(=O)C1OC1CC(OC2CC(O)C(OC3CC(C)(O)C(O)C(C)O3)C(C)O2)C(O)C(C)O1` (stereo not drawn): the outcome was inactive.

As to `CC[C@@H](C(=O)[C@H](C)[C@H](O)[C@@H](C)[C@H]1O[C@H]([C@@H](CC)C(=O)O)CC[C@H]1C)C1O[C@]2(C=C[C@@H](O)[C@]3(CC[C@@](C)([C@H]4CC[C@](O)(CC)[C@H](C)O4)O3)O2)[C@H](C)C[C@@H]1C` (stereo partly drawn), the GI50 is 0.194 µM and the TGI was found to be 1.85 µM.

Turning to `Cc1cc2nc3ccc(=[N+](C)C)cc-3sc2cc1N`, the GI50 is 0.455 µM and 0.618 µM; the TGI was 2.18 µM and 3.82 µM.

For `Cc1ccc(/C=C/C(=N/N=C(N)N)c2ccccc2)cc1`, the GI50 was 0.509 µM and the TGI worked out at 4.13 µM.

With `Clc1cc2c(nn1)Nc1ccccc1S2`, the GI50 is above 100 µM and the TGI was above 100 µM.

In the case of `CCOC(=O)c1ccc2c(c1)nc(/C=C/c1ccc(Cl)cc1)n2-c1cc(C(C)(C)C)[nH]n1`, the GI50 was 4.68 µM and the TGI was 95.6 µM.

On to `CSc1ccc2c(c1)N(CCC1CCCCN1C)c1ccccc1S2` (stereo not drawn), for which the GI50 is 1.78 µM and the TGI came out at 3.92 µM.

For the molecule `CNc1cc2nc3cc(NC)c(C)cc3cc2cc1C`, the GI50 was 0.242 µM and the TGI stood at 1.94 µM.

`Nc1ccccc1NC(=O)c1ccc(CN2CCC/C(=C\c3ccccn3)C2=O)cc1`: the GI50 is 1.33 µM and the TGI was found to be 3.88 µM.

In the case of `C=C1CC[C@@H]2[C@](C)(COC(C)=O)[C@H](OC(C)=O)CC[C@@]2(C)[C@@H]1CC(Nc1ccc(S(=O)(=O)Nc2cc(C)on2)cc1)C1=CCOC1=O` (stereo partly drawn), the GI50 is 1.49 µM and the TGI was 3.29 µM.

As for `O=c1c2cccc(F)c2sc2c(N3CCNCC3)nc3ccccc3c12`, the GI50 was 1.46 µM and the TGI amounted to 3.1 µM.
